The supplement of paper PMC13207355

Key:
Conditions in all cases: exposure time: 72 h
E28 [1] = patient-derived glioblastoma stem cells of classical subtype; assay: phenotypic distance (Euclidean, principal components) from DMSO controls (arbitrary units); higher = stronger morphological change
E31 [2] = patient-derived glioblastoma stem cells of proneural subtype; assay: as above
E21 [3] = patient-derived glioblastoma stem cells of mesenchymal subtype; assay: as above
E57 [4] = patient-derived glioblastoma stem cells of mesenchymal subtype; assay: as above
E34 [5] = patient-derived glioblastoma stem cells of proneural subtype; assay: as above
FT3469 [6] = normal neural stem cell line; assay: as above
E13 [7] = patient-derived glioblastoma stem cells of classical subtype; assay: as above
E28 [8] = assay: surviving fraction (nuclei count normalised to DMSO); higher = more cells surviving (less toxic)
E31 [9] = assay: as above
E21 [10] = assay: as above
E57 [11] = assay: as above
E34 [12] = assay: as above
FT3469 [13] = assay: as above
E13 [14] = assay: as above
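Throughout, for phenotypic distance (Euclidean, principal components) from DMSO controls: cell Painting imaging in 384-well plates, CellProfiler features reduced to at least 20 principal components, Euclidean distance versus same-plate DMSO vehicle wells (0.1% v/v), median over six images per well.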
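Throughout, for surviving fraction (nuclei count normalised to DMSO): nuclei counted by high-content imaging of Hoechst-stained cells in laminin-coated 384-well plates, relative to 0.1% DMSO vehicle wells, with staurosporine as cell-death control.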

CC1(C(=O)O)C2CCC(O2)C1(C)C(=O)O (stereo unspecified) [Cantharidic Acid]
Conditions	phenotypic distance	surviving fraction
E13 [7], 4.1 nM	0.746	–
E13 [7], 12.3 nM	0.673	–
E13 [7], 37 nM	0.774	–
E13 [7], 111.1 nM	0.872	–
E13 [7], 333.3 nM	0.83	–
E13 [7], 1000 nM	0.671	–
E13 [7], 3000 nM	2.26	–
E13 [14], 4.1 nM	–	0.839
E13 [14], 12.3 nM	–	0.973
E13 [14], 37 nM	–	0.995
E13 [14], 111.1 nM	–	1.11
E13 [14], 333.3 nM	–	0.921
E13 [14], 1000 nM	–	1.02
E13 [14], 3000 nM	–	0.939
E21 [3], 4.1 nM	0.625	–
E21 [3], 12.3 nM	0.711	–
E21 [3], 37 nM	1.21	–
E21 [3], 111.1 nM	0.773	–
E21 [3], 333.3 nM	0.585	–
E21 [3], 1000 nM	0.482	–
E21 [3], 3000 nM	2.17	–
E21 [10], 4.1 nM	–	0.955
E21 [10], 12.3 nM	–	0.853
E21 [10], 37 nM	–	1.11
E21 [10], 111.1 nM	–	1
E21 [10], 333.3 nM	–	1.03
E21 [10], 1000 nM	–	0.954
E21 [10], 3000 nM	–	0.922
E28 [1], 4.1 nM	0.917	–
E28 [1], 12.3 nM	0.654	–
E28 [1], 37 nM	0.463	–
E28 [1], 111.1 nM	0.528	–
E28 [1], 333.3 nM	0.599	–
E28 [1], 1000 nM	0.909	–
E28 [1], 3000 nM	2.54	–
E28 [8], 4.1 nM	–	0.901
E28 [8], 12.3 nM	–	1.05
E28 [8], 37 nM	–	0.971
E28 [8], 111.1 nM	–	1.07
E28 [8], 333.3 nM	–	1.11
E28 [8], 1000 nM	–	1.15
E28 [8], 3000 nM	–	0.771
E31 [2], 4.1 nM	1.05	–
E31 [2], 12.3 nM	0.816	–
E31 [2], 37 nM	1.07	–
E31 [2], 111.1 nM	1.09	–
E31 [2], 333.3 nM	0.68	–
E31 [2], 1000 nM	0.624	–
E31 [2], 3000 nM	1.67	–
E31 [9], 4.1 nM	–	1.07
E31 [9], 12.3 nM	–	1
E31 [9], 37 nM	–	1.16
E31 [9], 111.1 nM	–	1.05
E31 [9], 333.3 nM	–	1.04
E31 [9], 1000 nM	–	1.08
E31 [9], 3000 nM	–	0.683
E34 [5], 4.1 nM	1.38	–
E34 [5], 12.3 nM	1.36	–
E34 [5], 37 nM	1.46	–
E34 [5], 111.1 nM	1.49	–
E34 [5], 333.3 nM	1.07	–
E34 [5], 1000 nM	0.864	–
E34 [5], 3000 nM	3.29	–
E34 [12], 4.1 nM	–	0.916
E34 [12], 12.3 nM	–	1.08
E34 [12], 37 nM	–	0.914
E34 [12], 111.1 nM	–	1.1
E34 [12], 333.3 nM	–	1.22
E34 [12], 1000 nM	–	1.06
E34 [12], 3000 nM	–	0.832
E57 [4], 4.1 nM	0.632	–
E57 [4], 12.3 nM	0.322	–
E57 [4], 37 nM	0.414	–
E57 [4], 111.1 nM	0.564	–
E57 [4], 333.3 nM	0.544	–
E57 [4], 1000 nM	0.751	–
E57 [4], 3000 nM	1.72	–
E57 [11], 4.1 nM	–	0.985
E57 [11], 12.3 nM	–	0.996
E57 [11], 37 nM	–	0.944
E57 [11], 111.1 nM	–	1.03
E57 [11], 333.3 nM	–	1.04
E57 [11], 1000 nM	–	1.03
E57 [11], 3000 nM	–	0.947
FT3469 [6], 4.1 nM	1.06	–
FT3469 [6], 12.3 nM	0.717	–
FT3469 [6], 37 nM	0.644	–
FT3469 [6], 111.1 nM	0.683	–
FT3469 [6], 333.3 nM	0.991	–
FT3469 [6], 1000 nM	0.653	–
FT3469 [6], 3000 nM	2.25	–
FT3469 [13], 4.1 nM	–	0.889
FT3469 [13], 12.3 nM	–	0.855
FT3469 [13], 37 nM	–	1.07
FT3469 [13], 111.1 nM	–	1.03
FT3469 [13], 333.3 nM	–	1
FT3469 [13], 1000 nM	–	1.06
FT3469 [13], 3000 nM	–	0.777

C#C[C@]1(O)CC[C@H]2[C@@H]3CCc4cc(OC5CCCC5)ccc4[C@H]3CC[C@@]21C [Quinestrol]
Conditions	phenotypic distance	surviving fraction
E13 [7], 4.1 nM	0.478	–
E13 [7], 12.3 nM	0.526	–
E13 [7], 37 nM	0.837	–
E13 [7], 111.1 nM	0.697	–
E13 [7], 333.3 nM	0.689	–
E13 [7], 1000 nM	1.18	–
E13 [7], 3000 nM	7.05	–
E13 [14], 4.1 nM	–	1.06
E13 [14], 12.3 nM	–	1.04
E13 [14], 37 nM	–	1.11
E13 [14], 111.1 nM	–	1.07
E13 [14], 333.3 nM	–	1.02
E13 [14], 1000 nM	–	0.946
E13 [14], 3000 nM	–	0.347
E21 [3], 4.1 nM	0.608	–
E21 [3], 12.3 nM	0.48	–
E21 [3], 37 nM	0.746	–
E21 [3], 111.1 nM	0.53	–
E21 [3], 333.3 nM	0.819	–
E21 [3], 1000 nM	2.32	–
E21 [3], 3000 nM	6.37	–
E21 [10], 4.1 nM	–	1.01
E21 [10], 12.3 nM	–	0.938
E21 [10], 37 nM	–	1.05
E21 [10], 111.1 nM	–	0.982
E21 [10], 333.3 nM	–	1.02
E21 [10], 1000 nM	–	0.873
E21 [10], 3000 nM	–	0.617
E28 [1], 4.1 nM	0.438	–
E28 [1], 12.3 nM	2.42	–
E28 [1], 37 nM	0.788	–
E28 [1], 111.1 nM	0.466	–
E28 [1], 333.3 nM	0.753	–
E28 [1], 1000 nM	0.514	–
E28 [1], 3000 nM	0.675	–
E28 [8], 4.1 nM	–	1.13
E28 [8], 12.3 nM	–	1.04
E28 [8], 37 nM	–	1.08
E28 [8], 111.1 nM	–	1.1
E28 [8], 333.3 nM	–	1.04
E28 [8], 1000 nM	–	1.19
E28 [8], 3000 nM	–	1.01
E31 [2], 4.1 nM	0.447	–
E31 [2], 12.3 nM	0.67	–
E31 [2], 37 nM	1.03	–
E31 [2], 111.1 nM	0.71	–
E31 [2], 333.3 nM	0.698	–
E31 [2], 1000 nM	0.864	–
E31 [2], 3000 nM	3.81	–
E31 [9], 4.1 nM	–	1.02
E31 [9], 12.3 nM	–	0.942
E31 [9], 37 nM	–	1.09
E31 [9], 111.1 nM	–	1.07
E31 [9], 333.3 nM	–	0.981
E31 [9], 1000 nM	–	1.01
E31 [9], 3000 nM	–	0.848
E34 [5], 4.1 nM	0.544	–
E34 [5], 12.3 nM	0.554	–
E34 [5], 37 nM	0.597	–
E34 [5], 111.1 nM	0.985	–
E34 [5], 333.3 nM	1.09	–
E34 [5], 1000 nM	0.707	–
E34 [5], 3000 nM	1.82	–
E34 [12], 4.1 nM	–	1.01
E34 [12], 12.3 nM	–	1.07
E34 [12], 37 nM	–	1.01
E34 [12], 111.1 nM	–	1.07
E34 [12], 333.3 nM	–	1.15
E34 [12], 1000 nM	–	0.967
E34 [12], 3000 nM	–	0.918
E57 [4], 4.1 nM	1.71	–
E57 [4], 12.3 nM	1.01	–
E57 [4], 37 nM	0.583	–
E57 [4], 111.1 nM	0.81	–
E57 [4], 333.3 nM	0.452	–
E57 [4], 1000 nM	0.7	–
E57 [4], 3000 nM	3.72	–
E57 [11], 4.1 nM	–	1.05
E57 [11], 12.3 nM	–	1.05
E57 [11], 37 nM	–	1.01
E57 [11], 111.1 nM	–	1.06
E57 [11], 333.3 nM	–	1.01
E57 [11], 1000 nM	–	1.03
E57 [11], 3000 nM	–	0.693
FT3469 [6], 4.1 nM	0.479	–
FT3469 [6], 12.3 nM	0.739	–
FT3469 [6], 37 nM	0.643	–
FT3469 [6], 111.1 nM	1.01	–
FT3469 [6], 333.3 nM	0.84	–
FT3469 [6], 1000 nM	0.699	–
FT3469 [6], 3000 nM	1.58	–
FT3469 [13], 4.1 nM	–	0.963
FT3469 [13], 12.3 nM	–	1.03
FT3469 [13], 37 nM	–	1.11
FT3469 [13], 111.1 nM	–	1.09
FT3469 [13], 333.3 nM	–	1.2
FT3469 [13], 1000 nM	–	0.888
FT3469 [13], 3000 nM	–	0.938
